Assay results taken from patent US12427146B2, “C-terminal SRC kinase inhibitors” (INVENTISBIO CO., LTD., priority 2018, dated 2025).
pIC50: −log10 of the molar value.

Tests used:
[1] = target: CSK protein (Homo sapiens (Human), UniProt P41240); test: CSK Inhibition Assay; type: biochemical
Procedure, shortened: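 Compounds, 11-point 1:3 dilutions in DMSO, were preincubated 30 min at RT with CSK and fluorescent peptide substrate, then the reaction was started with ATP (4 μM solution) and run 90 min at 25 °C before EDTA stop. Phospho-peptide conversion was read by mobility-shift separation (Caliper EZ Reader II) and converted to % inhibition for IC50.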

[2] = target: LCK protein (Homo sapiens (Human), UniProt P06239); test: LCK Inhibition Assay; type: biochemical
Procedure, shortened: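 Recombinant LCK (0.50 nM) preincubated 30 min at RT with compound and FLPeptide4 (2 μM) in 50 mM HEPES pH 7.5, 10 mM MgCl2, Brij-35, DTT, BSA; reaction started with ATP (400 μM solution added), run 90 min at 25 °C, EDTA-stopped. Phospho/non-phospho peptide separated by mobility shift; IC50 from % inhibition of conversion, 11-point 1:3 series.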

CSK protein, sequence (P41240 whole entry): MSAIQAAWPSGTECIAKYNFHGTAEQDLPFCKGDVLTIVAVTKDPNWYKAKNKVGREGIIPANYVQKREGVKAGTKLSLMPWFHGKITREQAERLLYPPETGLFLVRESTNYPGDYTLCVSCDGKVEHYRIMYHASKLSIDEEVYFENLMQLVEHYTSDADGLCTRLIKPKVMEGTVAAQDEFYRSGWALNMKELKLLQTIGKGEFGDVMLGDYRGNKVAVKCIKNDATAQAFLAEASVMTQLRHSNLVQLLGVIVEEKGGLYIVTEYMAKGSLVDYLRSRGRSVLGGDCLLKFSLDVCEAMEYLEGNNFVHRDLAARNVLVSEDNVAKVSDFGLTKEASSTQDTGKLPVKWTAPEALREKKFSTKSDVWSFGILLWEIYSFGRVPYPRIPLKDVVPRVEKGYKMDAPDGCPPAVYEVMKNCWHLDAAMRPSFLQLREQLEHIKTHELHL
LCK protein, sequence (P06239 whole entry): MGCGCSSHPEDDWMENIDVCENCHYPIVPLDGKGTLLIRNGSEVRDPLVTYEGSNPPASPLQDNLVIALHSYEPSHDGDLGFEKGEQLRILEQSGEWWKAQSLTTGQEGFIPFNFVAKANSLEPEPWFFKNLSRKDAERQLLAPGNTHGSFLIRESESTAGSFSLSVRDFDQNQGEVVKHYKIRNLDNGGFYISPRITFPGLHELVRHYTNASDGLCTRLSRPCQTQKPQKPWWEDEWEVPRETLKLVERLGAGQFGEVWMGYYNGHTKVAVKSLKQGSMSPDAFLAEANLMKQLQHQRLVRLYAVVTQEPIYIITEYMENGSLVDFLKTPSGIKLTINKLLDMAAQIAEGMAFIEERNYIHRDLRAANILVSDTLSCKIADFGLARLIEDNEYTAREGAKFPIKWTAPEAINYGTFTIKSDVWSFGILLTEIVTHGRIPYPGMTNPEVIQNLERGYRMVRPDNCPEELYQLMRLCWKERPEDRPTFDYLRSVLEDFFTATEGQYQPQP

SMILES: Nc1nccc(-c2sc(-c3ccccc3)nc2-c2cccc(NS(=O)(=O)c3c(F)cccc3F)c2)n1 [Compound 18]
- pIC50 [1]: 6.84
- pIC50 [2]: < 6.00

SMILES: O=S(=O)(Nc1cccc(-c2nn(C3CCCCC3)cc2-c2ccnc(Nc3ccc(N4CCOCC4)nc3)n2)c1F)c1c(F)cccc1F [Compound 109]
- pIC50 [1]: 8.34
- pIC50 [2]: > 7.00

SMILES: Cc1ccc(F)c(S(=O)(=O)Nc2cccc(-c3nc(N(C)C)sc3-c3ccnc(NC4CC4)n3)c2F)c1F [Compound 183]
- pIC50 [1]: 7.95
- pIC50 [2]: < 6.00

SMILES: Nc1nccc(-c2sc(-c3ccccc3)nc2-c2cccc(NS(=O)(=O)c3c(F)cccc3F)c2F)n1 [compound 2]
- pIC50 [1]: 7.36
- pIC50 [2]: < 6.00

SMILES: O=S(=O)(Nc1cccc(-c2nc(-c3cncc(F)c3)sc2-c2ccnc(NC3CC3)n2)c1F)c1c(F)ccc(Cl)c1F [Compound 171]
- pIC50 [1]: 8.25
- pIC50 [2]: < 6.00

SMILES: O=S(=O)(Nc1cccc(-c2nc(C3CCCCC3)sc2-c2ccnc(Nc3ccc(N4CCOCC4)nc3)n2)c1F)c1c(F)cccc1F [Compound 121]
- pIC50 [1]: 7.81
- pIC50 [2]: > 7.00

SMILES: CNc1nccc(-c2sc(-c3cnc(C)cn3)nc2-c2cccc(NS(=O)(=O)c3c(F)ccc(C)c3F)c2F)n1 [Compound 144]
- pIC50 [1]: 7.62
- pIC50 [2]: < 6.00

SMILES: COc1ccccc1Nc1nccc(-c2sc(-c3ccc(F)cn3)nc2-c2cccc(NS(=O)(=O)c3c(F)cccc3F)c2F)n1 [Compound 33]
- pIC50 [1]: 6.23
- pIC50 [2]: < 6.00

SMILES: CCN(CC)c1nc(-c2cccc(NS(=O)(=O)c3c(F)cccc3F)c2F)c(-c2ccnc(NC)n2)s1 [compound 153]
- pIC50 [1]: 8.13
- pIC50 [2]: 6.00 to 7.00

SMILES: CNc1nccc(-c2c(-c3cccc(NS(=O)(=O)c4c(F)ccc(C)c4F)c3F)nc3cc(F)ccn23)n1 [Compound 107]
- pIC50 [1]: 6.95
- pIC50 [2]: < 6.00

SMILES: CC(C)Nc1nccc(-c2sc(-c3cncc(F)c3)nc2-c2cccc(NS(=O)(=O)c3c(F)cccc3F)c2F)n1 [Compound 78]
- pIC50 [1]: 7.93
- pIC50 [2]: < 6.00

SMILES: Cc1cccn2c(-c3ccnc(N)n3)c(-c3cccc(NS(=O)(=O)c4c(F)cccc4F)c3F)nc12 [Compound 93]
- pIC50 [1]: 7.38
- pIC50 [2]: < 6.00

SMILES: CNc1nccc(-c2sc(-c3cnc(C)nc3)nc2-c2cccc(NS(=O)(=O)c3c(Cl)cccc3Cl)c2F)n1 [Compound 148]
- pIC50 [1]: 8.16
- pIC50 [2]: 6.00 to 7.00

SMILES: COc1ccc(-c2nc(-c3cccc(NS(=O)(=O)c4c(F)cccc4F)c3F)c(-c3ccnc(N)n3)s2)cn1 [compound 27]
- pIC50 [1]: 7.57
- pIC50 [2]: 6.00 to 7.00

SMILES: Nc1nccc(-c2sc(-c3ccccc3)nc2-c2cccc(NS(=O)(=O)c3ccccc3)c2F)n1 [Compound 24]
- pIC50 [1]: 6.30
- pIC50 [2]: < 6.00

SMILES: Cc1ccc(-c2nc(-c3cccc(NS(=O)(=O)c4c(F)ccc(C)c4F)c3F)c(-c3ccnc(NC4CC4)n3)s2)nn1 [Compound 173]
- pIC50 [1]: 7.99
- pIC50 [2]: < 6.00

SMILES: Cc1ccc(F)c(S(=O)(=O)Nc2cccc(-c3nc(N4CCCCC4)sc3-c3ccnc(NC4CC4)n3)c2F)c1F [Compound 176]
- pIC50 [1]: 7.99
- pIC50 [2]: < 6.00

SMILES: Cc1ccc(F)c(S(=O)(=O)Nc2cccc(-c3nc(-c4ccccc4)sc3-c3ccnc(N)n3)c2F)c1F [compound 36]
- pIC50 [1]: 7.65
- pIC50 [2]: < 6.00

SMILES: CNc1nccc(-c2sc(-c3ccc(F)cn3)nc2-c2cccc(NS(=O)(=O)c3c(F)cccc3F)c2F)n1 [compound 34]
- pIC50 [1]: 7.37
- pIC50 [2]: < 6.00

SMILES: COc1ccn2c(-c3ccnc(NC4CC4)n3)c(-c3cccc(NS(=O)(=O)c4c(Cl)cccc4Cl)c3F)nc2c1 [Compound 158]
- pIC50 [1]: 6.77
- pIC50 [2]: < 6.00

SMILES: COC(=O)NCCNc1nccc(-c2sc(-c3ccccc3)nc2-c2cccc(NS(=O)(=O)c3c(F)cccc3F)c2F)n1 [Compound 59]
- pIC50 [1]: 7.16
- pIC50 [2]: < 6.00

SMILES: CNc1nccc(-c2sc(N3CCCCC3)nc2-c2cccc(NS(=O)(=O)c3c(Cl)ccc(C)c3Cl)c2F)n1 [Compound 177]
- pIC50 [1]: 7.85
- pIC50 [2]: < 6.00

SMILES: COC(=O)N[C@@H](C)CNc1nccc(-c2sc(-c3ccccc3)nc2-c2cccc(NS(=O)(=O)c3c(F)cccc3F)c2F)n1 [Compound 16]
- pIC50 [1]: 7.20
- pIC50 [2]: < 6.00
